In patent US5393748A, “Methylenebisphosphonic acid derivatives” (priority 1990, dated 1995):

How the values were obtained:
[1] = tested on: retinoid induced bone resorption in thyroparathyroidectomised rats; experiment: Inhibition of retinoid induced bone resorption in thyroparathyroidectomised rats in vivo; set-up: species or system rat; details: 150 μmole/kg
Protocol: (§1) The parathyroid hormone stimulated bone resorption inhibition activity of the compounds in vitro in mouse calvaria, as well as the inhibition of retinoid induced bone resorption in thyroparathyroidectomised rats in vivo were determined (Reynolds & Dingle (Calc Tiss Res 1970; 4:339, and Trechsel et al. (J Clin Invest 1987; 80:1679)).

[2] = tested on: parathyroid hormone stimulated bone resorption in mouse calvaria; experiment: Parathyroid hormone stimulated bone resorption inhibition in vitro in mouse calvaria; format: cell-based; details: 100 μm
Protocol: as §1

O=P(O)(O)C(Cl)(Cl)P(=O)(O)O [Clodronate, reference compound]
Inhibition of resorption (%), in vivo [1]: 64%

CCOP(=O)(O)C(Nc1ccccn1)P(=O)(O)OCC (stereo not shown) [[[(2-Pyridinyl)amino]methylidene]bisphosphonic acid P,P'-diethyl ester]
Inhibition of resorption (%), in vivo [1]: 65% | Inhibition of resorption (%), in vitro [2]: 33%

CC(C)OP(=O)(O)C(Sc1ccccn1)P(=O)(O)O (stereo not shown) [[[(2-Pyridinyl)thio]methylidene]bisphosphonic Acid Monoisopropyl Ester]
Inhibition of resorption (%), in vivo [1]: 87% | Inhibition of resorption (%), in vitro [2]: 50%

O=P(O)(O)C(Nc1ccccn1)P(=O)(O)O [[[(2-pyridinyl)amino]methylidene]bisphosphonate, reference compound]
Inhibition of resorption (%), in vivo [1]: > 100% | Inhibition of resorption (%), in vitro [2]: 56%

CCOP(=O)(O)C(Nc1ncccc1C)P(=O)(O)OCC (stereo not shown) [[[(3-Methyl-2-pyridinyl)amino]methylidene) Bisphosphonic Acid P,P'-diethyl Ester]
Inhibition of resorption (%), in vivo [1]: 66% | Inhibition of resorption (%), in vitro [2]: 43%

Cc1cccnc1NC(P(=O)(O)O)P(=O)(O)O [[[(3-methyl 2-pyridinyl)amino]methylidene]bisphosphonate, reference compound]
Inhibition of resorption (%), in vitro [2]: 51%
